Measured values reported in patent US20100041089A1, “IMPROVED METHOD FOR DETECTING CHEMICAL […]” (priority 2006, published 2010).

Test system: yeast genes (expressed mRNA)
Assay: DNA chip measurement of expressed mRNA of yeast genes after culture with a toxic chemical substance
Format: cell-based, Saccharomyces cerevisiae S288C
Protocol: Yeast (Saccharomyces cerevisiae S288C (a SUC2mal mel gap2 CUP1)) were cultured at 25° C. on YPD medium (yeast extract 1%, polypeptone 2%, glucose 2%). One of toxic chemical substances was added to the cell at logarithmic growth phase, and the cell was further cultured for two hours. Cell was cultured without any chemical substance in the same condition, and was used as a control. Concentrations of the chemical substances were defined to inhibit the growth of the yeast but not lead to death.
After the completion of cultivation, the culture was centrifuged to collect the cells. To the cells, sodium acetate buffer (50 mM sodium acetate, 10 mM EDTA, 1% SDS) was added, and the mixture was shaken at 65° C. for five minutes, followed by returning to room temperature, and obtaining the supernatant, which procedure was repeated two times. To the supernatant, ½ amount of a solution of phenol/chloroform (1:1) was added, and the mixture was centrifuged to give a supernatant, an equal amount of chloroform was added, and the mixture was centrifuged to give a supernatant. To the supernatant, an equal amount of isopropanol containing 0.3 M sodium acetate was added, and the mixture was allowed to stand at room temperature for 30 minutes, after which the mixture was centrifuged to give sediment of the whole RNAs. Seventy % ethanol was added to the sediment, and the mixture was again centrifuged to give sediment, which was then dried and dissolved in water. mRNA was isolated from the whole RNAs as followings. In view of the fact that a poly A chain is attached to the 3′ terminus of mRNA, a polynucleotide having a poly T structure which was immobilized on the surface of latex beads was used to trap the mRNA, and then the mRNA was washed and eluted with spine column (Oligotex-dT30<Super>mRNA Purification Kit, Takara). Reverse transcription of the mRNA was conducted with a reverse transcriptase (Super Script II Reverse Transcriptase; catalogue No. 18064-014, GibcoBRL) using fluorescence-labeled nucleotides to give cDNAs that were introduced with Cy3-dUTP or Cy5-dUTP during the reverse transcription.
The labeled cDNAs were dissolved in TE buffer (10 mM Tris-HCl/1 mM EDTA, pH 8.0), and the solution was dropped on the DNA chip containing the whole genes of yeast (DNA Chip Research Inc. Japan) so that the cDNAs were hybridized on the DNA chip at 65° C. for over 12 hours. The fluoresces intensity of the DNA chip was read with a scanner, and the ratio relative to the fluorescence intensity resulting from the absence of chemical substance was estimated as the following, which is shown in Tables 1 to 9.
In the Tables, “Intensity” indicated in the rightmost column is a value of the level of expressed mRNA of each gene in control cells as divided by the average level of the expressions of the whole genes. A gene of which mRNA level is lower in control, and is higher in cases of addition of chemical substance, is especially useful in the detection of toxic substances.
Here, when a ratio of an amount of mRNA expressed in the presence of the chemical substance to an amount of mRNA expressed in the absence of the chemical substance is two or more, then it is considered significant.

CCCCCCCCCCCCOS(=O)(=O)[O-].[Na+] [(18), Sodium lauryl sulfate]
The level of expressed mRNA in the presence of chemical substance/The level of expressed mRNA in the absence of chemical substance (yeast gene YNL092W, cultured two hours with substance): 1.6
The level of expressed mRNA in the presence of chemical substance/The level of expressed mRNA in the absence of chemical substance (yeast gene YNL115C, cultured two hours with substance): 2.6
The level of expressed mRNA in the presence of chemical substance/The level of expressed mRNA in the absence of chemical substance (yeast gene YNL156C, cultured two hours with substance): 1.9
The level of expressed mRNA in the presence of chemical substance/The level of expressed mRNA in the absence of chemical substance (yeast gene YNL190W, cultured two hours with substance): 0.8
The level of expressed mRNA in the presence of chemical substance/The level of expressed mRNA in the absence of chemical substance (yeast gene YNL208W, cultured two hours with substance): 1.0
The level of expressed mRNA in the presence of chemical substance/The level of expressed mRNA in the absence of chemical substance (yeast gene YNL211C, cultured two hours with substance): 6.8
The level of expressed mRNA in the presence of chemical substance/The level of expressed mRNA in the absence of chemical substance (yeast gene YNL234W, cultured two hours with substance): 1.0
The level of expressed mRNA in the presence of chemical substance/The level of expressed mRNA in the absence of chemical substance (yeast gene YNL281W, cultured two hours with substance): 0.9
The level of expressed mRNA in the presence of chemical substance/The level of expressed mRNA in the absence of chemical substance (yeast gene YNL300W, cultured two hours with substance): 0.8
The level of expressed mRNA in the presence of chemical substance/The level of expressed mRNA in the absence of chemical substance (yeast gene YNL305C, cultured two hours with substance): 1.6
The level of expressed mRNA in the presence of chemical substance/The level of expressed mRNA in the absence of chemical substance (yeast gene YNR064C, cultured two hours with substance): 1.9
The level of expressed mRNA in the presence of chemical substance/The level of expressed mRNA in the absence of chemical substance (yeast gene YNR068C, cultured two hours with substance): 1.0
The level of expressed mRNA in the presence of chemical substance/The level of expressed mRNA in the absence of chemical substance (yeast gene YOL032W, cultured two hours with substance): 1.8
The level of expressed mRNA in the presence of chemical substance/The level of expressed mRNA in the absence of chemical substance (yeast gene YOL036W, cultured two hours with substance): 0.9
The level of expressed mRNA in the presence of chemical substance/The level of expressed mRNA in the absence of chemical substance (yeast gene YOL047C, cultured two hours with substance): 1.0
The level of expressed mRNA in the presence of chemical substance/The level of expressed mRNA in the absence of chemical substance (yeast gene YOL071W, cultured two hours with substance): 2.0
The level of expressed mRNA in the presence of chemical substance/The level of expressed mRNA in the absence of chemical substance (yeast gene YOL073C, cultured two hours with the chemical substance): 1.2
The level of expressed mRNA in the presence of chemical substance/The level of expressed mRNA in the absence of chemical substance (yeast gene YOL082W, cultured two hours with substance): 2.5
The level of expressed mRNA in the presence of chemical substance/The level of expressed mRNA in the absence of chemical substance (yeast gene YOL083W, cultured two hours with substance): 3.2
The level of expressed mRNA in the presence of chemical substance/The level of expressed mRNA in the absence of chemical substance (yeast gene YOL117W, cultured two hours with substance): 1.4
The level of expressed mRNA in the presence of chemical substance/The level of expressed mRNA in the absence of chemical substance (yeast gene YOL131W, cultured two hours with substance): 0.9
The level of expressed mRNA in the presence of chemical substance/The level of expressed mRNA in the absence of chemical substance (yeast gene YOL150C, cultured two hours with substance): 2.2
The level of expressed mRNA in the presence of chemical substance/The level of expressed mRNA in the absence of chemical substance (yeast gene YOL162W, cultured two hours with substance): 0.9
The level of expressed mRNA in the presence of chemical substance/The level of expressed mRNA in the absence of chemical substance (yeast gene YOR019W, cultured two hours with substance): 2.8
The level of expressed mRNA in the presence of chemical substance/The level of expressed mRNA in the absence of chemical substance (yeast gene YOR161C, cultured two hours with the chemical substance): 1.2
The level of expressed mRNA in the presence of chemical substance/The level of expressed mRNA in the absence of chemical substance (yeast gene YOR173W, cultured two hours with substance): 3.8
The level of expressed mRNA in the presence of chemical substance/The level of expressed mRNA in the absence of chemical substance (yeast gene YOR197W, cultured two hours with substance): 1.5
The level of expressed mRNA in the presence of chemical substance/The level of expressed mRNA in the absence of chemical substance (yeast gene YOR248W, cultured two hours with substance): 0.8
The level of expressed mRNA in the presence of chemical substance/The level of expressed mRNA in the absence of chemical substance (yeast gene YOR289W, cultured two hours with substance): 3.9
The level of expressed mRNA in the presence of chemical substance/The level of expressed mRNA in the absence of chemical substance (yeast gene YPL052W, cultured two hours with substance): 1.5
The level of expressed mRNA in the presence of chemical substance/The level of expressed mRNA in the absence of chemical substance (yeast gene YPL087W, cultured two hours with substance): 2.7
The level of expressed mRNA in the presence of chemical substance/The level of expressed mRNA in the absence of chemical substance (yeast gene YPL196W, cultured two hours with substance): 2.3
The level of expressed mRNA in the presence of chemical substance/The level of expressed mRNA in the absence of chemical substance (yeast gene YPL206C, cultured two hours with substance): 1.9
The level of expressed mRNA in the presence of chemical substance/The level of expressed mRNA in the absence of chemical substance (yeast gene YPL222W, cultured two hours with substance): 0.9
The level of expressed mRNA in the presence of chemical substance/The level of expressed mRNA in the absence of chemical substance (yeast gene YPL272C, cultured two hours with the chemical substance): 1.2
The level of expressed mRNA in the presence of chemical substance/The level of expressed mRNA in the absence of chemical substance (yeast gene YPR023C, cultured two hours with substance): 1.1
The level of expressed mRNA in the presence of chemical substance/The level of expressed mRNA in the absence of chemical substance (yeast gene YPR079W, cultured two hours with substance): 1.5
The level of expressed mRNA in the presence of chemical substance/The level of expressed mRNA in the absence of chemical substance (yeast gene YPR127W, cultured two hours with substance): 1.2
The level of expressed mRNA in the presence of chemical substance/The level of expressed mRNA in the absence of chemical substance (yeast gene YPR151C, cultured two hours with substance): 1.4
